# pKi: −log10 of the molar value.
# Legend:
# [1] = target: Kappa-type opioid receptor (Homo sapiens, UniProt P41145); assay: (§1) PDSP Secondary Binding target: OPRK1 - Compounds are tested at 10 uM concentration, plate are incubated at room temperature in the dark for 90 minutes. Reaction are stopped by vacuum filtration onto 0.3% polyethyleneimine soaked filter mats using Filtermate harvester. Scintillation cocktail is then melted onto microwave-dried filters on a hot plate and the radio activity is counted in Microbia counter.
# [2] = target: D(1B) dopamine receptor (Homo sapiens, UniProt P21918); assay: as §1, with “DRD5” for “OPRK1”
# [3] = target: Sigma intracellular receptor 2 (Homo sapiens, UniProt Q5BJF2); assay: as §1, with “TMEM97” for “OPRK1”
# [4] = target: 5-hydroxytryptamine receptor 1D (Homo sapiens, UniProt P28221); assay: as §1, with “HTR1D” for “OPRK1”
# [5] = target: 5-hydroxytryptamine receptor 7 (Homo sapiens, UniProt P34969); assay: as §1, with “HTR7” for “OPRK1”
# [6] = target: 5-hydroxytryptamine receptor 1E (Homo sapiens, UniProt P28566); assay: as §1, with “HTR1E” for “OPRK1”
# [7] = target: T1, Muscarinic acetylcholine receptor M5 (Homo sapiens, UniProt P08912); assay: as §1, with “CHRM5” for “OPRK1”
# T1 sequence (P08912 whole entry): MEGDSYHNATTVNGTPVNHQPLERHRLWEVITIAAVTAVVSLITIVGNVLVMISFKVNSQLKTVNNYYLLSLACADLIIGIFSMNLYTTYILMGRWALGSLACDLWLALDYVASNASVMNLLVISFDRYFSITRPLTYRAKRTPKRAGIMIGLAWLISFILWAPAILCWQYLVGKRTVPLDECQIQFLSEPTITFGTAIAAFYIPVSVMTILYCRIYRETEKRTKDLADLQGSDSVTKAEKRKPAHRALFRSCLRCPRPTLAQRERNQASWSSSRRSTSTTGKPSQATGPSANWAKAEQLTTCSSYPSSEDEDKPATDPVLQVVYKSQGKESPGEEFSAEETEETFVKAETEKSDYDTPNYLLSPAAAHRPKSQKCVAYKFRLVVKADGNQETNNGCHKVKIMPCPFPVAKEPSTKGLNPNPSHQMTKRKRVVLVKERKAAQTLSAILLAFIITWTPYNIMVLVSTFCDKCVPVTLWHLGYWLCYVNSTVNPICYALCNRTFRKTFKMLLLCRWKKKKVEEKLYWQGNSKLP
# [8] = target: Sigma non-opioid intracellular receptor 1 (Homo sapiens, UniProt Q99720); assay: as §1, with “SIGMAR1” for “OPRK1”
# Sequence of Sigma non-opioid intracellular receptor 1 (Q99720 whole entry): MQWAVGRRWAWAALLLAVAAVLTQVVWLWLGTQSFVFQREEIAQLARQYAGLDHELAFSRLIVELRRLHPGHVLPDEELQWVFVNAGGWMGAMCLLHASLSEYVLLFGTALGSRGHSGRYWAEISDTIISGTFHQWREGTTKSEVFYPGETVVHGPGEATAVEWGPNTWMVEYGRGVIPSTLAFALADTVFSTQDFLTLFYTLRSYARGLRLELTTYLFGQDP
# Sequence of D(1B) dopamine receptor (P21918 whole entry): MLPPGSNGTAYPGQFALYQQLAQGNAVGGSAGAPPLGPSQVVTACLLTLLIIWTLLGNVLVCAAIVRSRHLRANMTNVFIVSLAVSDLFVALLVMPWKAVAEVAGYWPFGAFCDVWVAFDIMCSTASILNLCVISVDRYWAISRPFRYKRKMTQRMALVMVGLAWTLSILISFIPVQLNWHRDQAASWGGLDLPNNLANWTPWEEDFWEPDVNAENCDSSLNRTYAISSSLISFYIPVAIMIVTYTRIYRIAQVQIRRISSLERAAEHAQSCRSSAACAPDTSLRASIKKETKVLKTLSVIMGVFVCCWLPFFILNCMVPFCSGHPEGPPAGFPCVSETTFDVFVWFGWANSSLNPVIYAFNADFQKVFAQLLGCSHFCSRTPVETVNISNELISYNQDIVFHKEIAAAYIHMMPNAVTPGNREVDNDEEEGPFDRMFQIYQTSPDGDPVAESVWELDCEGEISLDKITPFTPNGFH
# Sequence of Kappa-type opioid receptor (P41145 whole entry): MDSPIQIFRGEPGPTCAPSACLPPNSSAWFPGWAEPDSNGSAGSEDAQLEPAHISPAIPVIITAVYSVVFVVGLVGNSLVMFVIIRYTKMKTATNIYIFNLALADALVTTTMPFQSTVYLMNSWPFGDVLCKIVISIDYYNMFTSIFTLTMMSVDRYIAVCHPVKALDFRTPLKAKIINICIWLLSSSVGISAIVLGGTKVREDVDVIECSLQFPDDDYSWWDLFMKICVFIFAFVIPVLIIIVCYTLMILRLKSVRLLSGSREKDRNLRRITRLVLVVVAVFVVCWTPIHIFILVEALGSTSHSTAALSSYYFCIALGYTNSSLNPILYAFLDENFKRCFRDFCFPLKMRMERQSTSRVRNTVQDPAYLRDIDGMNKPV
# Sequence of 5-hydroxytryptamine receptor 7 (P34969 whole entry): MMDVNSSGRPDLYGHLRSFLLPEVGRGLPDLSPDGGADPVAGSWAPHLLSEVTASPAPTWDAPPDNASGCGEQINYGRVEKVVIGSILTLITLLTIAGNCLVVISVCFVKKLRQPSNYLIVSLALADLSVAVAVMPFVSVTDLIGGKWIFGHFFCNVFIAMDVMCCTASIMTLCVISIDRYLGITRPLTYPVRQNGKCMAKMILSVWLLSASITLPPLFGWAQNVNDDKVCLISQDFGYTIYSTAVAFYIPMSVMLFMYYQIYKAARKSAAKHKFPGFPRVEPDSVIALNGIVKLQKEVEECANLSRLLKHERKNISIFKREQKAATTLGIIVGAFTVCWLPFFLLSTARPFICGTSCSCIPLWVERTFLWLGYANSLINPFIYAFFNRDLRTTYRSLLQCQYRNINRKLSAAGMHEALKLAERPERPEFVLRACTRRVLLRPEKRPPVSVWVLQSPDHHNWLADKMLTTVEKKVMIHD
# Sequence of 5-hydroxytryptamine receptor 1D (P28221 whole entry): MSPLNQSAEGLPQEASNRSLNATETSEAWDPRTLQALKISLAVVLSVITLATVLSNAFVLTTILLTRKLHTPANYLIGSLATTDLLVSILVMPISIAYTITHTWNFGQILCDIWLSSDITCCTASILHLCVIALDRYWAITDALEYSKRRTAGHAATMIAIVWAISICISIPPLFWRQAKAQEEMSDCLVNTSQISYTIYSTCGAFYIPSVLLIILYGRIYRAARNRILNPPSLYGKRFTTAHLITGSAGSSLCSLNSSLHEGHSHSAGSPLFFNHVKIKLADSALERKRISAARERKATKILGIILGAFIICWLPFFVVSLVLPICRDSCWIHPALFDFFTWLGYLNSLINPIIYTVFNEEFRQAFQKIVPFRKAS
# Sequence of Sigma intracellular receptor 2 (Q5BJF2 whole entry): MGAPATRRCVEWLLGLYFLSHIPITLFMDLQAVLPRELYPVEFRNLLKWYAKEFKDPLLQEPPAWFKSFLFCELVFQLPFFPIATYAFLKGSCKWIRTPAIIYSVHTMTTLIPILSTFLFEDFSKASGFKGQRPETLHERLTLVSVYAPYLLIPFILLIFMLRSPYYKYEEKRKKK
# Sequence of 5-hydroxytryptamine receptor 1E (P28566 whole entry): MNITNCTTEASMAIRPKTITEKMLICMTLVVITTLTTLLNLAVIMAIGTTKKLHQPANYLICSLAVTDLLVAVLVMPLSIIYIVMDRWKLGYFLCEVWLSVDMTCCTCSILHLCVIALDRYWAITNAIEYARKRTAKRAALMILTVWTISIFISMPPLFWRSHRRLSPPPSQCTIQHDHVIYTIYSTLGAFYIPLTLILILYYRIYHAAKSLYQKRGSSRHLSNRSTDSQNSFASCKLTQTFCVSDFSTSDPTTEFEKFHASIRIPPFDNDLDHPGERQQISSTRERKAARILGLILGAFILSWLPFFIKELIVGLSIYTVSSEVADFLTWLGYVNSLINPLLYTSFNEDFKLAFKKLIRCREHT
compound,measurement,setting,value
CN1CCC(C(=O)c2cccc(NC(=O)c3c(F)cc(F)cc3F)n2)CC1,pKi,[1],6.45
same,pKi,[2],6.60
same,pKi,[3],6.74
same,pKi,[4],6.06
same,pKi,[5],5.27
same,pKi,[6],6.90
same,pKi,[7],6.20
same,pKi,[8],5.50
